The record followed here is US10758549B2, “Compositions of obeticholic acid and methods of use” (Intercept Pharmaceuticals, Inc., priority 2015, dated 2020).

Like-named read-outs stand apart in the source and are kept apart here.

Data set [1] is described as follows: Example 10: clinical pharmacology / pharmacokinetics of OCA. The settings on record: for Urinary excretion / dose excreted in feces: radiolabeled ([^14C]) obeticholic acid. It counts as in vivo, human. The protocol:
This example describes clinical pharmacology and dosing of obeticholic acid (OCA—including obeticholic acid compositions described herein). […] OCA can be supplied as an oral tablet containing obeticholic acid in a formulation as described herein.
Median Tmax for glyco-OCA and tauro-OCA is 10 hours.
Following an oral administration of 25 mg [^14C]-OCA, about 87% of the dose is excreted in feces through biliary secretion. Less than 3% of the dose is excreted in the urine with no detection of OCA.

A short description of data set [2]: Hepatic impairment study, single dose of 10 mg OCA. Type of data set: in vivo, human. The settings on record: hepatically-impaired patients. From the text: The mean total OCA concentration-time profiles in this study are shown in FIG. 16 and the mean PK parameters (Cmax and AUCt) for total OCA in plasma for normal healthy volunteers and subjects with various categories of hepatic impairment are quantified in Table 27.
Development of the PK model for the physiological changes associated with hepatic impairment used 928 plasma sample concentrations of OCA, glyco-OCA, and tauro-OCA from 32 subjects-8 subjects each with mild, moderate, severe hepatic impairment and normal hepatic function. Subjects were administered a single 10 mg dose of OCA. […] Participants were 90.6% white, 3.1% black, 3.1% Asian, and 3.1% other. Mean Child-Pugh Score was 8.0 (2.0) (Child-Pugh Score: Class A/Mild 5-6 points, Class B/Moderate 7-9 points, Class C/Severe 10-15 points). The percentage of BLQ samples with imputed concentrations was 16.8%, 5.4%, and 9.6% for OCA, glyco-OCA, and tauro-OCA, respectively.

The subject of data set [3] is CYP2B6, CYP2C8, CYP2D6, MRP2, MRP3, MRP4, MATE1, and OATP2B1. Briefly: In vitro studies: expression of metabolizing enzymes and transporters. Type of data set: in vitro ADME.
The mark [4] stands for this setting: oral, listed as obeticholic acid.

Broadly, the half-life is the time in which the quantity being followed falls by half. Regarding `CC[C@H]1[C@@H](O)[C@@H]2[C@H](CC[C@]3(C)[C@@H]([C@H](C)CCC(=O)O)CC[C@@H]23)[C@@]2(C)CC[C@@H](O)C[C@@H]12` [OCA, 3α,7α-dihydroxy-6α-ethyl-5β-cholan-24-oic acid], in data set [1] (10 mg OCA), the “effect of food on PK” value is on record as “does not have a clinically relevant effect”. In data set [1] (20 mg omeprazole once daily with obeticholic acid 10 mg once daily), the “increase in obeticholic acid exposure” value is reported as “less than 1.2 fold”. In addition, in data set [1] (5, 10, and 25 mg once daily for 14 days), the “systemic exposure versus dose” value is listed as “increase dose proportionally”. Moreover, in data set [1] (human, in vivo, read-out: volume of distribution), the Vd was 613 L. Also, the Tmax is approximately 1.5 h in data set [1] (human, plasma, multiple oral doses of OCA 10 mg once daily, read-out: median time (Tmax) of peak plasma concentrations) and approximately 2 h in data set [1] (human, plasma, oral, read-out: median time (tmax) of peak plasma concentrations). In data set [1] (human, plasma, oral, read-out: effective half-life (converted)), the half-life is approximately 24 h. Also, the figures for the Urinary excretion result in data set [1] (oral) and in data set [1] (setting [4]) were “Less than 3%” and “less than 3%”, respectively. The “dose excreted in feces” value is recorded as “about 87%” in data set [1] (oral) and “greater than 85%” in data set [1] (setting [4]). In addition, the “plasma OCA exposures versus healthy subjects” value in data set [2] is given as more than 10 fold. For the same compound, the “change in expression of CYP2B6, CYP2C8, CYP2D6, MRP2, MRP3, MRP4, MATE1, and OATP2B1” value in data set [3] was “did not cause a significant change”.
